Counter-ions that a name gives are not always drawn.
How the values were obtained:
[1] = test system: Human Thrombocytes; assay: Fibrinogen Binding to Human Thrombocytes (I125-fibrinogen, gel-filtered platelets); conditions: inhibition of I125-fibrinogen binding to gel-filtered human platelets, ADP, 20 minutes, ambient temperature; read-out: Fibrinogen Binding test IC50
In short: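 Gel-filtered human platelets (from citrated PRP, pH 7.4 Tris/citrate/glucose buffer) incubated 20 min at ambient temperature with test compound, CaCl2, ADP and I125-fibrinogen; non-specific binding with 3 mg/ml cold fibrinogen. Platelets spun through silicone oil, bound fibrinogen gamma-counted; IC50 from a concentration series.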

[2] = test system: thrombocyte aggregation in platelet-rich plasma; assay: Antithrombotic effect: collagen-induced thrombocyte aggregation in platelet-rich plasma (Born and Cross); format: cell-based; conditions: human platelet-rich plasma, 10 minutes preincubation at 37° C., read-out: Inhibition of platelet aggregation EC50
In short: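 Human platelet-rich plasma (citrated 1:10, 3.14%) incubated with compound 10 min at 37 °C, then aggregation triggered by minimal collagen giving irreversible response. Optical density change tracked photometrically (Born and Cross); EC50 determined graphically as 50% inhibition of optical density change.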

[3] = test system: collagen-induced thrombocyte aggregation; assay: Collagen-induced thrombocyte aggregation ex vivo after oral administration; format: in vivo; conditions: Rhesus monkeys, 1 mg/kg
[4] = test system: mice; conditions: mouse, in vivo, 30 mg/kg

Structure (SMILES) | IC50 [1] [nM] | EC50 [2] [nM] | duration of inhibition of collagen-induced thrombocyte aggregation ex vivo [3] | sedation [4] | death of animals after intravenous administration ([4]; iv)
N=C(N)c1ccc(N2CCN(c3ccc(CCC(=O)O)cc3)S2(=O)=O)cc1 [1(66), 2-(4-amidino-phenyl)-5-[4-(2-carboxy-ethyl)-phenyl]-3,4-dihydro-2H,5H-1,2,5-thiadiazole-1,1-dioxide] | 9.1 | 50 | – | one animal was sedated | –
Cc1cn(-c2ccc(C(=N)N)cc2)c(=O)n1-c1ccc(CCC(=O)O)cc1 [Example 1(138), 1-(4-amidino-phenyl)-3-[4-(2-carboxy-ethyl)-phenyl]-4-methyl-3H-imidazol-2-one] | 21 | 40 | – | – | did not lead to the death of any of the three animals tested
Cc1nn(-c2ccc(C(=N)N)cc2)c(=O)n1-c1ccc(CCC(=O)O)cc1 [1(139), 2-(4-amidino-phenyl)-4-[4-(2-carboxy-ethyl)-phenyl]-5-methyl-4H-1,2,4-triazol-3-one] | 6.8 | 30 | – | one animal was sedated | –
N=C(N)c1ccc(N2CCN(C3CCC(CCC(=O)O)CC3)C2=O)cc1 (stereo not drawn) [1(46), 1-(4-amidino-phenyl)-3-[4-(2-carboxy-ethyl)cyclohexyl]-imidazolidin-2-one] | 11 | 40 | – | – | –

Now from value to molecule, other results behind:

IC50 [1] [nM] | EC50 [2] [nM] | Structure (SMILES) | duration of inhibition of collagen-induced thrombocyte aggregation ex vivo [3] | sedation [4] | death of animals after intravenous administration ([4]; iv)
> 10000 | 8060 | COC(=O)NC(=N)c1ccc(-n2nc(C)n(-c3ccc(CCC(=O)OCC(C)C)cc3)c2=O)cc1 [Example 5(18), 4-[4-(2-isobutyloxycarbonyl-ethyl)-phenyl]-2-(4-methoxycarbonylamidino-phenyl)-5-methyl-4H-1,2,4-triazol-3-one] | up to 8 hours | – | –
7400 | 350 | COC(=O)CCc1ccc(N2CCN(c3ccc(C(=N)N)cc3C)C2=O)cc1 [2(34), 1-(4-amidino-2-methyl-phenyl)-3-[4-(2-methoxycarbonyl-ethyl)-phenyl]-imidazolidin-2-one hydrochloride] | – | – | –
> 10000 | 22000 | N=C(N)c1ccc(-c2ccc(-n3c(=O)n(CCC(=O)O)c4cccnc43)cc2)cc1 [1(143), 3-(4'-amidino-4-biphenylyl)-1-(2-carboxy-ethyl)-3H-imidazo[4,5-b]pyridin-2-one] | – | – | –

From patent US5276049A, “Cyclic urea derivatives, pharmaceutical compositions containing these compounds and methods of using the same” (Dr. Karl Thomae GmbH, priority 1991, dated 1994)
